Target: T1, Tyrosine-protein phosphatase non-receptor type 1 (Homo sapiens, UniProt P18031)
T1 sequence (P18031 whole entry): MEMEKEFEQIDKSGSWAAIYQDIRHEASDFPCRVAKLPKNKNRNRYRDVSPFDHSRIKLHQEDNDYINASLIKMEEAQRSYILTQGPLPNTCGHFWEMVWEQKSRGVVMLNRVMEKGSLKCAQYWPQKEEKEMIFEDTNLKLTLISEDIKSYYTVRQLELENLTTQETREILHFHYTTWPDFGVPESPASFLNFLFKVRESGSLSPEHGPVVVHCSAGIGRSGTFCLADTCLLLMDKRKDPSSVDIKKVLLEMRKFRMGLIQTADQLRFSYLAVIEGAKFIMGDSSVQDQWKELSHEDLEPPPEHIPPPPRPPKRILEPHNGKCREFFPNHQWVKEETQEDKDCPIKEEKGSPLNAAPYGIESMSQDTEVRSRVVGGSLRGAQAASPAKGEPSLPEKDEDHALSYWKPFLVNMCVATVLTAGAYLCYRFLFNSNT
Assay: Inhibition of human recombinant PTP1B using pNPP substrate at 37 degC measured after 30 mins

In the case of `COc1cc(O)ccc1/C=C1\SC(=O)NC1=O`, the IC50 is reported as 29.8 µM.
Molecule `COc1cc(O)c(Br)cc1/C=C1\SC(=O)NC1=O` has an IC50 of 11.3 µM.
With `COc1cc(OC)c(/C=C2\SC(=O)NC2=O)cc1Br` the IC50 was 14.2 µM.
`C=CCOc1cc(OC)c(/C=C2\SC(=O)NC2=O)cc1Br` showed an IC50 of 8.1 µM.
For `COc1cc(OCC=C(C)C)c(Br)cc1/C=C1\SC(=O)NC1=O`, the IC50 was 5.3 µM.
In the case of `CCCCOc1cc(OC)c(/C=C2\SC(=O)NC2=O)cc1Br`, the IC50 is reported as 4.9 µM.
For `COc1cc(OCc2ccccc2)c(Br)cc1/C=C1\SC(=O)NC1=O`, the IC50 was 7.6 µM.
`COc1cc(OC)c(/C=C2\SC(=O)N(C)C2=O)cc1Br` gave an IC50 of 22.3 µM.
`COc1cc(OCc2ccccc2)c(Br)cc1/C=C1\SC(=O)N(C)C1=O` was tested, and the IC50 was 8.1 µM.
Work on `COc1cc(OCC=C(C)C)c(Br)cc1/C=C1\SC(=O)N(C)C1=O` yielded an IC50 of 8.2 µM.
Work on `C=CCN1C(=O)S/C(=C\c2cc(Br)c(OCC=C(C)C)cc2OC)C1=O` yielded an IC50 of 17 µM.
With `COc1cc(OCC=C(C)C)c(Br)cc1/C=C1\SC(=O)N(C(C)C)C1=O` the IC50 was 4.6 µM.
`CCCCN1C(=O)S/C(=C\c2cc(Br)c(OCC=C(C)C)cc2OC)C1=O` was tested, and the IC50 was 12.3 µM.
`COc1cc(OCC=C(C)C)c(Br)cc1/C=C1\SC(=O)N(CC=C(C)C)C1=O` showed an IC50 of 10 µM.
Molecule `COc1cc(OCC=C(C)C)c(Br)cc1/C=C1\SC(=O)N(Cc2ccccc2)C1=O` has an IC50 of 10.3 µM.
`CCCCOc1cc(OC)c(/C=C2\SC(=O)N(C)C2=O)cc1Br` showed an IC50 of 12.1 µM.
`C=CCN1C(=O)S/C(=C\c2cc(Br)c(OCCCC)cc2OC)C1=O` gave an IC50 of 7.9 µM.
In the case of `CCCCOc1cc(OC)c(/C=C2\SC(=O)N(C(C)C)C2=O)cc1Br`, the IC50 is reported as 9.7 µM.
`CCCCOc1cc(OC)c(/C=C2\SC(=O)N(CCCC)C2=O)cc1Br` was tested, and the IC50 was > 30 µM.
With `CCCCOc1cc(OC)c(/C=C2\SC(=O)N(Cc3ccccc3)C2=O)cc1Br` the IC50 was 6.6 µM.
`C=CCc1cc(/C=C2\SC(=O)NC2=O)c(OC)cc1OC1CCCCO1` (centres undefined) was tested, and the IC50 was 12.2 µM.
In the case of `C=CCc1cc(/C=C2\SC(=O)N(C)C2=O)c(OC)cc1OC1CCCCO1` (centres undefined), the IC50 is reported as > 30 µM.
With `C=CCc1cc(/C=C2\SC(=O)N(C(C)C)C2=O)c(OC)cc1OC1CCCCO1` (centres undefined) the IC50 was > 30 µM.
For `C=CCc1cc(/C=C2\SC(=O)N(CC=C)C2=O)c(OC)cc1OC1CCCCO1` (centres undefined), the IC50 was > 30 µM.
Work on `C=CCc1cc(/C=C2\SC(=O)N(CC=C(C)C)C2=O)c(OC)cc1OC1CCCCO1` (centres undefined) yielded an IC50 of 22.7 µM.
Molecule `C=CCc1cc(/C=C2\SC(=O)N(CCCC)C2=O)c(OC)cc1OC1CCCCO1` (centres undefined) has an IC50 of 20.6 µM.
With `C=CCc1cc(/C=C2\SC(=O)N(Cc3ccccc3)C2=O)c(OC)cc1OC1CCCCO1` (centres undefined) the IC50 was > 30 µM.
In the case of `C=CCc1cc(/C=C2\SC(=O)N(C)C2=O)c(OC)cc1O`, the IC50 is reported as > 30 µM.
Work on `C=CCc1cc(/C=C2\SC(=O)N(C(C)C)C2=O)c(OC)cc1O` yielded an IC50 of 6.4 µM.
With `C=CCc1cc(/C=C2\SC(=O)N(CC=C)C2=O)c(OC)cc1O` the IC50 was > 30 µM.
`C=CCc1cc(/C=C2\SC(=O)N(CC=C(C)C)C2=O)c(OC)cc1O` gave an IC50 of 12 µM.
For `C=CCc1cc(/C=C2\SC(=O)N(CCCC)C2=O)c(OC)cc1O`, the IC50 was 9.6 µM.
Work on `C=CCc1cc(/C=C2\SC(=O)N(Cc3ccccc3)C2=O)c(OC)cc1O` yielded an IC50 of 7.2 µM.
Work on `C=CCc1cc(/C=C2\SC(=O)NC2=O)c(OC)cc1O` yielded an IC50 of 29.3 µM.
